Here are results for 1 compound from ChEMBL document CHEMBL5131409, “Synthesis and characterization of chiral 6-azaspiro[2.5]octanes as potent and selective antagonists of the M4 muscarinic acetylcholine receptor” (Bioorg Med Chem Lett, 2022).

What is called Cmax is the peak of the concentration-time curve. Usually Tmax stands for the time from dosing to the highest level. One may read the IC50 as the concentration that gives 50% inhibition. In general, Vd refers to the apparent volume that relates the amount in the body to the concentration in plasma or blood. In general, AUC(0-inf) refers to the area under the concentration-time curve extrapolated to infinity. As usually defined, the AUC(0-t) is the area under the concentration-time curve up to a stated or last time point.

Series [1] can be described thus: Ratio of AUC (0.25 to last) in mouse brain to plasma at 3 mg/kg, ip. The series is classed as ADME, organism-based. The settings on record: read-out: Ratio AUC.
Series [2] is described as follows: Unbound Cmax in rat plasma at 3 mg/kg, ip. The settings on record: in vivo. The series is classed as ADME, organism-based.
A short description of series [3]: Cmax in mouse brain at 3 mg/kg, ip. The series is classed as ADME, organism-based. Also noted: dose 3 mg/kg, route ip.
Series [4] is described as follows: Tmax in mouse brain at 3 mg/kg, ip. In kind it is ADME, organism-based.
Series [5] in a line: Cmax in rat brain at 3 mg/kg, ip. In kind it is ADME, organism-based. Details: dose 3 mg/kg, route ip.
Series [6] deals with T1, Muscarinic acetylcholine receptor M5 (Rattus norvegicus, UniProt P08911).
T1 sequence (P08911 whole entry): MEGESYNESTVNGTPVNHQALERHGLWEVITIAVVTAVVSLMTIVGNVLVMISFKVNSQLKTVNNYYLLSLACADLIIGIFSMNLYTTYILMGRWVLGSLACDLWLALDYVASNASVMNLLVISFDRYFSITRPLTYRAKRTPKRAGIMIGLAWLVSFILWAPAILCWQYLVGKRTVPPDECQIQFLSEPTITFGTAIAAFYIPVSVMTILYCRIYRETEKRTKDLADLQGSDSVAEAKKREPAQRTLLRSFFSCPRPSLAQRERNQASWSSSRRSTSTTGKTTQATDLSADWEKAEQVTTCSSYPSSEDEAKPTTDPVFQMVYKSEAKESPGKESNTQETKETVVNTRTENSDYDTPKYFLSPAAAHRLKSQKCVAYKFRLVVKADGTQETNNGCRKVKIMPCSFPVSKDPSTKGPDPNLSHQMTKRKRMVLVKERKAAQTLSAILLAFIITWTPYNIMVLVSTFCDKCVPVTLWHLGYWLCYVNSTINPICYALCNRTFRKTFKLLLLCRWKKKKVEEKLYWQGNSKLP
Nature of the series: Inhibition of rat muscarinic acetylcholine M5 receptor expressed in CHO cells co-expressing Gqi5 preincubated with compound followed by acetylcholine addition at EC80 concentration by calcium mobilization assay. The series is classed as functional, cell-based.

A short description of series [7]: Intrinsic clearance in human liver microsomes. The settings on record: read-out: CLH. In kind it is ADME, Microsome. (Liver microsomes are vesicles of endoplasmic reticulum, rich in cytochrome P450 enzymes.)
The nature of series [8]: Cmax in mouse plasma at 3 mg/kg, ip. Also noted: dose 3 mg/kg, route ip. In kind it is ADME, organism-based.
A short description of series [9]: Elimination half life in rat at 3 mg/kg, iv. In kind it is ADME, organism-based. The settings on record: in vivo, read-out: beta t1/2 (converted).
Series [10] in a line: Volume of distribution in rat at 3 mg/kg, iv. To be noted: in vivo. In kind it is ADME, organism-based.
A short description of series [11]: AUC (0.25 to last) in mouse brain at 3 mg/kg, ip. The series is classed as ADME, organism-based. To be noted: in vivo.
For series [12], the target named is T2, Muscarinic acetylcholine receptor M4 (Homo sapiens, UniProt P08173).
T2 sequence (P08173 whole entry): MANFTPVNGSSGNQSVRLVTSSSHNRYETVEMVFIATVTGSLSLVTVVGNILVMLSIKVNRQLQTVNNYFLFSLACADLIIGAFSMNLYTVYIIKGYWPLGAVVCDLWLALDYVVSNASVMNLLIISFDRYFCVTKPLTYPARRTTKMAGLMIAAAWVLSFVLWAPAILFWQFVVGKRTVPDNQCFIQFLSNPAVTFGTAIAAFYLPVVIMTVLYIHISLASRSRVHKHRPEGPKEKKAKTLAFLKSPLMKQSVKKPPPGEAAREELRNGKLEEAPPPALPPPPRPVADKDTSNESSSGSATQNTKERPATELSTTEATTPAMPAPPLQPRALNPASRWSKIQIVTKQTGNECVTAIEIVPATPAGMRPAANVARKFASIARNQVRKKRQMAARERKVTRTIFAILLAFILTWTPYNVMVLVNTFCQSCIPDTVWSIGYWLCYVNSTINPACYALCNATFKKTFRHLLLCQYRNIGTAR
The series can be described thus: Inhibition of human muscarinic acetylcholine M4 receptor expressed in CHO cells co-expressing Gqi5 in the presence of acetylcholine at EC80 concentration by calcium mobilization assay. The series is classed as functional, cell-based. Background: Calcium flux is commonly read through the fluorescence of an indicator in the cells.

The next series deals with Cytochrome P450 3A4 (Homo sapiens, UniProt P08684). The series can be described thus: Inhibition of CYP3A4 in human liver microsomes using cocktail of isoform-specific probe substrate. The series is classed as ADME, Microsome.
The target of series [13] is T3, Muscarinic acetylcholine receptor M4 (Homo sapiens) (UniProt P08173).
T3 sequence (whole entry): T2 sequence (P08173 whole entry)
The series can be described thus: Antagonist activity at human muscarinic acetylcholine M4 receptor expressed in CHO cells co-expressing Gqi5 assessed as minimal acetylcholine response by calcium mobilization assay relative to control. In kind it is functional, cell-based. Also noted: scale not given: the % may be the effect or the level left. The settings on record: filed as antagonist.

In another series the target is Cytochrome P450 2C9 (Homo sapiens, UniProt P11712). The series can be described thus: Inhibition of CYP2C9 in human liver microsomes using cocktail of isoform-specific probe substrate. In kind it is ADME, Microsome.
A short description of series [14]: AUC (0.25 to last) in rat brain at 3 mg/kg, ip. In kind it is ADME, organism-based. The settings on record: in vivo.
Series [15] can be described thus: AUC (0 to infinity) in rat at 3 mg/kg, iv. In kind it is ADME, organism-based. Details: time infinity, dose 3 mg/kg, route iv. To be noted: in vivo.
For series [16], the target named is T4, Muscarinic acetylcholine receptor M2 (Homo sapiens, UniProt P08172).
T4 sequence (P08172 whole entry): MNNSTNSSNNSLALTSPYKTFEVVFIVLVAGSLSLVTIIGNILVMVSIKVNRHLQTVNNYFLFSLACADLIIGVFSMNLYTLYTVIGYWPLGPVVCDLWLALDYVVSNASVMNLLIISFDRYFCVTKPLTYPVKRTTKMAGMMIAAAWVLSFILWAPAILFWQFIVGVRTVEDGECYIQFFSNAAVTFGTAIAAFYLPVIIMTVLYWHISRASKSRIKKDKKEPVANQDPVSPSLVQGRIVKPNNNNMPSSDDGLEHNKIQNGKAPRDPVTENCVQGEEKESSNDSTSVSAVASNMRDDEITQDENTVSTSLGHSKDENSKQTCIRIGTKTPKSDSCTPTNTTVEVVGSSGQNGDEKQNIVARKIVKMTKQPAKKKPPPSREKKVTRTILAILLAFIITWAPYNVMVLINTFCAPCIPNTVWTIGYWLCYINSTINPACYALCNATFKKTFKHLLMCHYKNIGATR
Nature of the series: Inhibition of human muscarinic acetylcholine M2 receptor expressed in CHO cells co-expressing Gqi5 in the presence of acetylcholine at EC80 concentration by calcium mobilization assay. The series is classed as functional, cell-based.

In series [17] the target is T5, Muscarinic acetylcholine receptor M2 (Rattus norvegicus, UniProt P10980).
T5 sequence (P10980 whole entry): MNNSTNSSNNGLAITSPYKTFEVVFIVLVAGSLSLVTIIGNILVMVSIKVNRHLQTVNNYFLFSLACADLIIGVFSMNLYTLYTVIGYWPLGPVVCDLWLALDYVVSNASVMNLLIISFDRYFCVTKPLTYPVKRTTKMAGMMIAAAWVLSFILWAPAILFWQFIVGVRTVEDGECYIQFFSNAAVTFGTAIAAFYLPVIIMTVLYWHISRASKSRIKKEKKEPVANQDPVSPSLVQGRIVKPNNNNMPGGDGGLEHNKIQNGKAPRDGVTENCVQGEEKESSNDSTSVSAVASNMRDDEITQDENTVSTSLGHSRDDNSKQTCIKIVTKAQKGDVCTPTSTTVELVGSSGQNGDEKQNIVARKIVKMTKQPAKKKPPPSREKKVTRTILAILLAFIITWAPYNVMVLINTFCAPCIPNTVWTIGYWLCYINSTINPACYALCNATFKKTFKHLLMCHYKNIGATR
The series can be described thus: Inhibition of rat muscarinic acetylcholine M2 receptor expressed in CHO cells co-expressing Gqi5 preincubated with compound followed by acetylcholine addition at EC80 concentration by calcium mobilization assay. In kind it is functional, cell-based.

Series [18] is described as follows: AUC (0 to last) in rat at 3 mg/kg, iv. The series is classed as ADME, organism-based. Details: time 0 - last, dose 3 mg/kg, route iv. The settings on record: in vivo.

Chain of Cytochrome P450 2C9 (P11712 whole entry, canonical isoform): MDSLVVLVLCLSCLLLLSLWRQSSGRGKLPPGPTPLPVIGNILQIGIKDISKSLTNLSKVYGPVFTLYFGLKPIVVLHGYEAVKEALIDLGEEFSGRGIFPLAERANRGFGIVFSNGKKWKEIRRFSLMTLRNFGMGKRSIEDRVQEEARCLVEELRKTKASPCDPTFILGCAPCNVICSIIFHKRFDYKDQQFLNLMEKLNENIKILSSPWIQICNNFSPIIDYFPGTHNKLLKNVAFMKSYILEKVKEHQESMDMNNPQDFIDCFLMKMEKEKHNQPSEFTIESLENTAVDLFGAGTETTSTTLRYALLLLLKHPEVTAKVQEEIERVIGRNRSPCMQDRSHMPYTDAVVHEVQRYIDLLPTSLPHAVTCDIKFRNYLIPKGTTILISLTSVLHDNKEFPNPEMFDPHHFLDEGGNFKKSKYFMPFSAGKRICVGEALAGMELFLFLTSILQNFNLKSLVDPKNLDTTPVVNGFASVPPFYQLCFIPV
Chain of Cytochrome P450 3A4 (P08684 whole entry, canonical isoform): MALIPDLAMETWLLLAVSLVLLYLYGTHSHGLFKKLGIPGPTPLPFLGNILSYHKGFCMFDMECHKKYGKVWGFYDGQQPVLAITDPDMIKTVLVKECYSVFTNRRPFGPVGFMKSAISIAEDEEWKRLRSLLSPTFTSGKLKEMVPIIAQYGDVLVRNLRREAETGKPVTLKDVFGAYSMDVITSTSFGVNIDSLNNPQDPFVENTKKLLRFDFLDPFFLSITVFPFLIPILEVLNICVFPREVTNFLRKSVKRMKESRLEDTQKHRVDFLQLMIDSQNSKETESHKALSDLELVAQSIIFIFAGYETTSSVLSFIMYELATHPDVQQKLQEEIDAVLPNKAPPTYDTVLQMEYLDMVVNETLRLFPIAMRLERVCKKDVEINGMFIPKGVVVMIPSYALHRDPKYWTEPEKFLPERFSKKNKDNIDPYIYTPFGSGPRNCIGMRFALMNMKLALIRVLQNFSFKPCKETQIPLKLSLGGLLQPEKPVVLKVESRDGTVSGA

For the compound `CC(=O)Nc1ccc(-c2ccc(NC[C@@H]3CC34CCN(CC3CCOCC3)CC4)nn2)cc1`, the Kp in [1] was 0.38. The compound further registered a fCmax in [2] of 1656 ng/mL. Besides, the Cmax turned out to be 738 ng/g in [3], 477 ng/g in series [5] and 6870 ng/mL in [8]. Moreover, the Tmax in series [4] turned out to be 2 h. The IC50 is above 10 µM in series [6]; 0.071 µM in [12]; above 30 µM against Cytochrome P450 3A4; above 30 µM at Cytochrome P450 2C9; above 10 µM in series [16]; above 10 µM in series [17]. The predicted hepatic clearance in series [7] is 16 mL/min/kg. Moreover, the half-life in [9] was 8.6 h. In addition, in series [10], the Vd was 147 L/kg. The AUClast was determined as 3980 ng·h/g in series [11] and 2180 ng·h/g in series [14]. Also, the Activity in [13] was 3.2%. The compound also had an AUC(0-inf) in series [15] of 202 ng·h/mL. The compound further returned an AUC(0-t) in series [18] of 181 ng·h/mL.
